Measurements reported in patent US11160788B2, “Caspase-1 inhibition and uses thereof for prevention and treatment of neurological conditions” (priority 2016, dated 2021).

Key:
[1] = test system: serum deprived human primary neurons; test: Neuritic beading in serum-deprived human primary neurons; assay type: cell-based; settings: reversal treatment 48 hrs after serum deprivation
Method: (§1) FIG. 13: VX-765 protects CNS primary human neurons (HPN) against APP- or serum deprivation-mediated neuritic beading. (a) MTT assay with increasing dose of VX-765. (b) Fluorescent micrographs showing homogeneous distribution of EGFP in normal neurons and neuritic beading in APP-transfected neurons. (c) Percentage beading in APP-transfected or serum-deprived neurons treated 1 h before and continuously with stressor (Pre-treatment) or 48 h after stressor (post-beading treatment) with 25 or 50 μM VX-765 or with 5 μM Z-YVAD-fmk Casp1 peptide inhibitor. […] (d-e) HPN secreted or cellular Aβ42/total Aβ38+40+42 (d) (F(3,4)=12.73, p=0.0163, ANOVA, Dunnett's post-hoc compared to Serum+DMSO, *p<0.05), and (e) levels of secreted II-1β, IFN-γ, TNF-α, and II-6 from untreated (+S), serum deprived (−S), or serum-deprived human neurons treated with 25 or 50 μM VX-765.
(§2) EGFP-labeled human primary neurons were either APP^WT transfected or serum deprived. Two treatment strategies were employed to determine VX-765's effects on neuronal degeneration: our Pre-Treatment strategy looked at whether VX-765 could block neuronal degeneration when administered 1 hr prior to APP^WT transfection or serum deprivation, while our Reversal Treatment strategy looked at whether VX-765 could reverse degenerative effects when administered 48 hrs after APP^WT transfection or serum deprivation. Neurons displaying beaded morphology were counted with live imaging and measured as a percentage of the total number of eGFP+ neurons from 24-72 hrs after treatment. The irreversible caspase-1 inhibitor YVAD-fmk was used as positive control in our experiments. Results were obtained from averaging counts for at least 100 eGFP+ neurons per experiment in three independent neuron preparations.

[2] = test system: APP^WT-transfected human primary neurons; test: Neuritic beading in APPWT-transfected human primary neurons; assay type: cell-based
Method: as §1, §2

[3] = molecular target: T1, recombinant human Casp1 (Homo sapiens, UniProt P29466); test: Caspase inhibition IC50, recombinant human Casp1; assay type: biochemical; settings: read-out: IC50 against human Casp1
T1 sequence (P29466 120-297 limits assumed): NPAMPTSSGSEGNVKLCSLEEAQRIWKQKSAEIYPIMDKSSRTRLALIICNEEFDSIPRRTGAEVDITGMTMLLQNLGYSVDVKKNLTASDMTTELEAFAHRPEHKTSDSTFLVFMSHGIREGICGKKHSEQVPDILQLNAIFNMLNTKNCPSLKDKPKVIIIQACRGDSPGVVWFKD
T1 sequence (P29466 317-404 limits assumed): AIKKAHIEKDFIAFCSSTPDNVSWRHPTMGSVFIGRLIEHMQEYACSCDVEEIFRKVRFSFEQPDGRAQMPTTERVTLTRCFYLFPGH
Method: (§3) FIG. 14: Selectivity and blood brain permeability of VX-765 and VRT-043198. (a-b) IC50 of VX-765 (a) and VRT-043198 (b) against human Casp1-10. (c-d) IC50 of VX-765 (c) and VRT-043198 (d) against mouse Casp1 and Casp11. (e) Blood brain barrier permeability and presence of VX-765 and VRT-043198 in 3 wild type and 4 J20 mice brain cortex and hippocampus and in plasma. Ratios of brain levels to plasma levels are calculated.

[4] = molecular target: T2, mouse recombinant Casp1 (Mus musculus, UniProt P29452); test: Caspase inhibition IC50, mouse recombinant Casp1; assay type: biochemical; settings: read-out: IC50 against mouse Casp1
T2 sequence (P29452 119-296 limits assumed): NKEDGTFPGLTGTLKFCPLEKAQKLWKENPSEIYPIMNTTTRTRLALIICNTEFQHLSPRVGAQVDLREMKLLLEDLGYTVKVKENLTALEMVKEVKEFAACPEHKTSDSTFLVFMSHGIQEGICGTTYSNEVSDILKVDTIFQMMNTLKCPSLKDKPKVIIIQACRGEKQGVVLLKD
T2 sequence (P29452 315-402 limits assumed): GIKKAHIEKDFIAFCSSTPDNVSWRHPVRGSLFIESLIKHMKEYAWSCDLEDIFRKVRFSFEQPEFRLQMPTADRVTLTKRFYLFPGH
Method: as §3

| Compound | neuritic beading [1] | neuritic beading ([2]; pre-treatment 1 h before and continued, VX-765 25 and 50 μM, Z-YVAD-fmk 5 μM, 48 and 72 h) | neuritic beading ([2]; reversal (post-beading) treatment 48 hrs after APP^WT transfection, listed as YVAD) | neuritic beading ([2]; reversal (post-beading) treatment 48 hrs after APP^WT transfection, listed as YVAD-fmk) | IC50 [3] | IC50 [4] |
| --- | --- | --- | --- | --- | --- | --- |
| Z-YVAD-fmk | neither YVAD nor VX-765 were able to reverse neuritic beading | prevented neuritic beading | not able to reverse neuritic beading at any time-point | unable to reverse or prevent neuritic beading at any time-point | – | – |
| CC(C)(C)[C@H](NC(=O)c1ccc(N)c(Cl)c1)C(=O)N1CCC[C@H]1C(=O)N[C@H]1CC(=O)OC1O (stereo partly drawn) [VRT-043198, (2S)-1-((S)-2-(4-amino-3-chlorobenzamido)-3,3-dimethylbutanoyl)-N-((3S)-2-hydroxy-5-oxotetrahydrofuran-3-yl)pyrrolidine-2-carboxamide] | – | – | – | – | 9.91 nM | 18 nM |
